Columns and labels:
Androgen receptor [1] = target: T1, Androgen receptor (Homo sapiens, UniProt P10275, T878A); experiment: Activation of T877A androgen receptor of human prostate cancer LNCap cells in reporter gene assay; format: functional, cell-based
Androgen receptor [2] = target: T1, Androgen receptor; experiment: Inhibition of [3H]-DHT binding to T877A androgen receptor of LNCaP cells
Androgen receptor [3] = target: T2, Androgen receptor (Homo sapiens, UniProt P10275); experiment: Inhibition of [3H]DHT binding to androgen receptor of MDA-453 cells
T2 sequence (P10275 whole entry): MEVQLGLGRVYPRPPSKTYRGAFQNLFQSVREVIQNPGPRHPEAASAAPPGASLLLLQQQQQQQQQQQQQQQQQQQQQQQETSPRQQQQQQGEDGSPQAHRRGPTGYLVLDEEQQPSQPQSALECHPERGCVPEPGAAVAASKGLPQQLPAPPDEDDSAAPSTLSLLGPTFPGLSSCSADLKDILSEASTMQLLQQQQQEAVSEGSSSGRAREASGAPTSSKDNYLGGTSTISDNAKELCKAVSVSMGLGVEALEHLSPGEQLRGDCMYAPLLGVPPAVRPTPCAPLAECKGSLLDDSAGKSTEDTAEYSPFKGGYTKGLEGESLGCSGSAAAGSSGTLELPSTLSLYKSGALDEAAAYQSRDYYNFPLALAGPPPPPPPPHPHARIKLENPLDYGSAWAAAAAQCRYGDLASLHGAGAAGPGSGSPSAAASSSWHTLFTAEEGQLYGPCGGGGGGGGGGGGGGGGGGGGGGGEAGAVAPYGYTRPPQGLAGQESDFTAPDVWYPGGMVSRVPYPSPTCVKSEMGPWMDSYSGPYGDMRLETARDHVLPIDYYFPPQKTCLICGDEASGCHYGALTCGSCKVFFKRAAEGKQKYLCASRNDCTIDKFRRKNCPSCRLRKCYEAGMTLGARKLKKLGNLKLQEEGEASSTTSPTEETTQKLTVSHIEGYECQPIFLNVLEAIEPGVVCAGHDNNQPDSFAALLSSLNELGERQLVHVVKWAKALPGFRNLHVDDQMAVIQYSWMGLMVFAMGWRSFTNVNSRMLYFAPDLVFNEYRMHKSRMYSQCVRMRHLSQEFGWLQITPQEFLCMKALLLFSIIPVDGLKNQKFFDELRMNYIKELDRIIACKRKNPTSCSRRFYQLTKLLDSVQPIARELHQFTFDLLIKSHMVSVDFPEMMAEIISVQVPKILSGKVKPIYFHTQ

Androgen receptor [4] = target: T2, Androgen receptor
Description: Inhibition of human androgen receptor of breast carcinoma MDA-453 cells in reporter gene assay

Androgen receptor [5] = target: Androgen receptor (Homo sapiens, UniProt P10275, L702H/T878A); format: functional, cell-based; conditions: mdamb-pca2b
Androgen receptor [6] = target: T1, Androgen receptor
Description: Inhibition of T877A androgen receptor of human prostate cancer cells in reporter gene assay

Sequence of Androgen receptor (Homo sapiens, UniProt P10275, L702H/T878A) (P10275 whole entry L702H/T878A): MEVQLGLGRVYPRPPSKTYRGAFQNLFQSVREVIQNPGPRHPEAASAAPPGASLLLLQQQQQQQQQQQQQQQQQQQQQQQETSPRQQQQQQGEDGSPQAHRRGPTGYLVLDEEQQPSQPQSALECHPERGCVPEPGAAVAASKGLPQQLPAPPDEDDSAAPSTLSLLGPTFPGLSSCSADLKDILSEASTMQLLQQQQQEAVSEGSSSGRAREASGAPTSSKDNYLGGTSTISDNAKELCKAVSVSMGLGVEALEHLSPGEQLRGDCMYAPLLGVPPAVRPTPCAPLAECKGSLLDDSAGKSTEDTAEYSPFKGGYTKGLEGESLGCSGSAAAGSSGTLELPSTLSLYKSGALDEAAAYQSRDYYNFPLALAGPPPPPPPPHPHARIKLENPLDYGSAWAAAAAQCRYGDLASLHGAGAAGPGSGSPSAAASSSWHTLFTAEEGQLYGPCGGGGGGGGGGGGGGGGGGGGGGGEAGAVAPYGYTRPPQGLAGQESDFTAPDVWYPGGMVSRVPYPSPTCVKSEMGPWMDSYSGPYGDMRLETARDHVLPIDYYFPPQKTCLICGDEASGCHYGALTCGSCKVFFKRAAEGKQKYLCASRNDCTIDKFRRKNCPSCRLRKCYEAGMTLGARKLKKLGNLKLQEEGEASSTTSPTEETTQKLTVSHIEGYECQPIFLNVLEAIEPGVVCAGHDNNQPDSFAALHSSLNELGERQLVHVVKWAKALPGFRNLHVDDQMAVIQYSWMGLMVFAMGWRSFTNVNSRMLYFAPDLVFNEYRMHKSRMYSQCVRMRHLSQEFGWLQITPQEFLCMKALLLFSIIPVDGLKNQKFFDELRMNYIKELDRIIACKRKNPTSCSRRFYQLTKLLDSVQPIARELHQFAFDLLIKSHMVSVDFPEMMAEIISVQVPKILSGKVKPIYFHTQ
T1 sequence (P10275 whole entry T878A): as the sequence (P10275 whole entry L702H/T878A) above, with H702L counted along it

Row | Compound | Agonist activity (qualitative) (Androgen receptor [1]) | Ki (Androgen receptor [2]) [nM] | Ki (Androgen receptor [3]) [nM] | IC50 (Androgen receptor [4]) [nM] | IC50 (Androgen receptor [5]) | IC50 (Androgen receptor [6]) [nM] | IC50 (Androgen receptor [1]) | Ki (Androgen receptor [2]; lncap) [nM]
1 | O=C1[C@@H]2C3C=CC(C3)[C@@H]2C(=O)N1c1ccc([N+](=O)[O-])c(C(F)(F)F)c1 | Agonist | 5 | 55 | 119 | Agonist | – | – | –
2 | O=C1[C@@H]2C3C=CC(C3)[C@@H]2C(=O)N1c1ccc(O)c2ncccc12 | – | 32 | 162 | 418 | – | 1790 | – | –
3 | O=C1[C@@H]2C3C=CC(C3)[C@@H]2C(=O)N1c1cccc(C(F)(F)F)c1 | – | 7 | 632 | 744 | – | 35 | – | –
4 | O=C1[C@@H]2C3CCC(C3)[C@@H]2C(=O)N1c1cccc(C(F)(F)F)c1 (stereo in doubt; 13) | – | 2 | – | 317 | – | 12 | – | –
5 | O=C1[C@@H]2C3CCC(C3)[C@@H]2C(=O)N1c1cccc(C(F)(F)F)c1 (stereo in doubt; 12) | – | 3.4 | 319 | 127 | – | 7 | – | –
6 | O=C1[C@@H]2C3C=CC(C3)[C@@H]2C(=O)N1c1cc(C(F)(F)F)cc(C(F)(F)F)c1 | – | 24 | 401 | 1750 | – | 72 | – | –
7 | Cc1cc(N2C(=O)[C@@H]3C4C=CC(C4)[C@@H]3C2=O)ccc1Br | Agonist | 3.6 | 125 | 220 | Agonist | – | – | –
8 | O=C1[C@@H]2C3C=CC(C3)[C@@H]2C(=O)N1c1ccc(F)c(Cl)c1 | – | 2 | – | 517 | – | 33 | – | –
9 | O=C1[C@@H]2C3CCC(C3)[C@@H]2C(=O)N1c1ccc([N+](=O)[O-])c(C(F)(F)F)c1 (stereo in doubt; 15) | Agonist | 2 | 5 | 12 | Agonist | – | – | –
10 | O=C1[C@@H]2C3C=CC(C3)[C@@H]2C(=O)N1c1cc(Cl)cc(Cl)c1 | – | 6 | 158 | 307 | – | 41 | – | –
11 | Cc1ccc(N2C(=O)[C@@H]3C4C=CC(C4)[C@@H]3C2=O)cc1C | – | 3.4 | 400 | 2010 | – | 10 | – | –
12 | O=C1[C@@H]2C3C=CC(C3)[C@@H]2C(=O)N1c1ccc(Br)c(C(F)(F)F)c1 | Agonist | 0.6 | 46 | 146 | Agonist | – | – | –
13 | O=C1[C@@H]2C3C=CC(C3)[C@@H]2C(=O)N1c1ccc2ccccc2c1 | – | 11 | 284 | 1210 | – | 84 | – | –
14 | CC(C)(O)C(=O)Nc1ccc([N+](=O)[O-])c(C(F)(F)F)c1 [HYDROXYFLUTAMIDE] | – | – | – | – | Agonist | – | Agonist | –
15 | O=C1[C@@H]2C3CCC(C3)[C@@H]2C(=O)N1c1ccc([N+](=O)[O-])c(C(F)(F)F)c1 (stereo in doubt; 16) | – | – | – | – | – | – | – | 2
16 | O=C1[C@@H]2C3C=CC(C3)[C@@H]2C(=O)N1c1ccc([N+](=O)[O-])c2ccccc12 | Agonist | 0.5 | 1 | > 5 | Agonist | – | – | –
17 | O=C1[C@@H]2C3C=CC(C3)[C@@H]2C(=O)N1c1ccc2cccnc2c1 | – | 13 | – | 1040 | – | 52 | – | –
18 | O=C1[C@@H]2C3CCC(C3)[C@@H]2C(=O)N1c1ccc2ccccc2c1 | – | 11 | – | 1200 | – | 84 | – | –
19 | O=C1[C@@H]2C3C=CC(C3)[C@@H]2C(=O)N1c1ccc([N+](=O)[O-])cc1 | – | 12 | 192 | 664 | – | 30 | – | –

Reference: ChEMBL document CHEMBL1144249, “Identification of a novel class of androgen receptor antagonists based on the bicyclic-1H-isoindole-1,3(2H)-dione nucleus” (Bioorg Med Chem Lett, 2005)
